The values that follow come from US20230143604A1, “QW DOSING OF GIP RECEPTOR AGONIST PEPTIDE COMPOUNDS AND USES THEREOF” (TAKEDA PHARMACEUTICAL COMPANY LIMITED, priority 2020, published 2023).

Like-named read-outs stand apart in the source and are kept apart here. Some results are limits rather than exact numbers.

A short description of one data set: physchem. An outline of the steps: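 3 mg of peptide treated with 100 μL portions of 200 mM phosphate buffer pH 7.4, sonicating/vortexing up to 1 min, with further buffer added until fully dissolved. Solubility then quantified by HPLC.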
In the next data set the test system is C57BL/6J mice. The data set can be described thus: Oral glucose tolerance test (OGTT). It is filed as in vivo. As to conditions: 3 nmol/kg s.c., 24 hours before glucose loading. The procedure: An oral glucose tolerance test (OGTT) was carried out using C57BL/6J mice with a 50% dextrose solution dosed at 5 ml/kg. Testing concentrations of 0.1 nmol/kg, 0.3 nmmol/kg, 3 nmol/kg or 10 nmol/kg were selected depending on the peptide. Each peptide or a vehicle (control group) was subcutaneously administered 24 hours (unless shown otherwise) before glucose loading and the blood glucose was measured at 0, 15, 30, and 60 minutes after glucose dosing.
% inhibition=(1−(AUC cpd−AUC naïve/AUC veh−AUC naïve))×100.

The target of another data set is T1, human GLP-1R (Homo sapiens, UniProt P43220).
T1 construct: HEK-293T cells overexpressing full-length human GLP-1R; FLAG (N); host or cells: HEK-293T
T1 sequence (P43220 24-463): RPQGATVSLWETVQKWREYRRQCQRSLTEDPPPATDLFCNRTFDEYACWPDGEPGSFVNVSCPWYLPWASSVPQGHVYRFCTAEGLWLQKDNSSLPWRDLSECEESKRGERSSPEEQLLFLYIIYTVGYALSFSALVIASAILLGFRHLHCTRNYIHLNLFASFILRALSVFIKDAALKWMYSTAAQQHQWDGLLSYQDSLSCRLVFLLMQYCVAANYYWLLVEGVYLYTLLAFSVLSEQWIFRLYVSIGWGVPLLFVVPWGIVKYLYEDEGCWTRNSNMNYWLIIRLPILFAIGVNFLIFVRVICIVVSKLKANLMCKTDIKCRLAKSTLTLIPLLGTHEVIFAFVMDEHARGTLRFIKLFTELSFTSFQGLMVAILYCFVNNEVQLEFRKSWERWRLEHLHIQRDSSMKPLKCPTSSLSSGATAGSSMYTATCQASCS
Kind of data set: Human GLP1R agonist activity, intracellular cAMP accumulation. It is filed as cell-based. Particulars: HEK-293T cells overexpressing human GLP-1R, 1 hr. The procedure: Cells are cultured per the manufacturer's protocol in DMEM with 10% fetal bovine serum and 1 μg/mL puromycin and stored in frozen aliquots to be used as assay ready cells. On the day of the assay, cells are removed from frozen storage, washed two times in 1× Kreb's Ringer Buffer (Zenbio, Research Triangle Park, N.C.), and re-suspended to a concentration of 4×10^5 cells/mL in 1× Kreb's Ringer Buffer. […] Cells are incubated with test compound for 1 hr at room temperature in the dark, and cAMP accumulation is measured using the Cisbio HiRange cAMP assay kit (Bedford, Mass.) per the manufacturer's protocol. Anti-cAMP antibody and d2-cAMP tracer reagents diluted in lysis/detection buffer are incubated in the dark for 1 hr, and results are measured on an Envision plate reader (Perkin Elmer, Waltham, Mass.). Data is normalized using 1 nm GLP-1 as 100% activity, and DMSO alone as 0% activity.
Background: Cyclic AMP is a second messenger, typically raised through Gs and lowered through Gi signalling.

Setting [1] is: read-out: Human GLP1R cAMP EC50, HEK293T.

In general, solubility refers to how much of the substance goes into solution per volume. The low end stands for little dissolved substance, the high end for much dissolved substance. By EC50 is commonly meant the midpoint of the concentration-response curve.

Take `CC[C@H](C)[C@H](NC(=O)[C@H](Cc1ccccc1)NC(=O)[C@@H](NC(=O)CNC(=O)[C@H](CCC(=O)O)NC(=O)C(C)(C)NC(=O)[C@H](Cc1ccc(O)cc1)NC)[C@@H](C)O)C(=O)N[C@@H](CO)C(=O)N[C@@H](CC(=O)O)C(=O)N[C@@H](Cc1ccc(O)cc1)C(=O)N[C@@H](CO)C(=O)N[C@H](C(=O)NC(C)(C)C(=O)N[C@@H](CCCCNC(=O)CNC(=O)CNC(=O)CNC(=O)CNC(=O)CNC(=O)CCCCCCCCCCCCCCCCC(=O)O)C(=O)N[C@@H](CC(=O)O)C(=O)N[C@@H](CCCNC(=N)N)C(=O)NC(C)(C)C(=O)N[C@@H](C)C(=O)N[C@@H](CCC(N)=O)C(=O)NC(C)(C)C(=O)N[C@@H](CC(=O)O)C(=O)N[C@@H](Cc1ccccc1)C(=O)N[C@H](C(=O)N[C@@H](CC(N)=O)C(=O)N[C@@H](Cc1c[nH]c2ccccc12)C(=O)N[C@@H](CC(C)C)C(=O)N[C@@H](CC(C)C)C(=O)N[C@@H](C)C(=O)N[C@@H](CCC(N)=O)C(=O)N[C@@H](CO)C(=O)N1CCC[C@H]1C(=O)NCC(=O)O)C(C)C)[C@@H](C)CC` [Compound 83]: the solubility was at least 15 mg/mL in “physchem” (pH 7.4) and at least 30 mg/mL in the data set “physchem” (pH 7.4, aqueous buffer). For the same compound, the “Oral Glucose Tolerance Test Percent decrease in blood glucose AUC (%) over 60 mins” value with C57BL/6J mice is given as 68% (3 nmol/kg). Also, the EC50 at human GLP-1R (setting [1]) amounted to 66.1 nM.
Regarding `CC[C@H](C)[C@H](NC(=O)[C@H](CO)NC(=O)[C@H](Cc1ccc(O)cc1)NC(=O)[C@H](CC(=O)O)NC(=O)[C@H](CO)NC(=O)[C@@H](NC(=O)[C@H](Cc1ccccc1)NC(=O)[C@@H](NC(=O)CNC(=O)[C@H](CCC(=O)O)NC(=O)C(C)(C)NC(=O)[C@H](Cc1ccc(O)cc1)NC)[C@@H](C)O)[C@@H](C)CC)C(=O)N[C@@H](C)C(=O)N[C@@H](CCCCNC(=O)CNC(=O)CNC(=O)CNC(=O)CNC(=O)CNC(=O)CCCCCCCCCCCCCCCCC(=O)O)C(=O)N[C@@H](CC(=O)O)C(=O)N[C@@H](CCCNC(=N)N)C(=O)NC(C)(C)C(=O)N[C@@H](C)C(=O)N[C@@H](CCC(N)=O)C(=O)NC(C)(C)C(=O)N[C@@H](CC(=O)O)C(=O)N[C@@H](Cc1ccccc1)C(=O)N[C@H](C(=O)N[C@@H](CC(N)=O)C(=O)N[C@@H](Cc1c[nH]c2ccccc12)C(=O)N[C@@H](CC(C)C)C(=O)N[C@@H](CC(C)C)C(=O)N[C@@H](C)C(=O)N[C@@H](CCC(N)=O)C(=O)N[C@@H](CCC(N)=O)C(=O)NCC(=O)O)C(C)C` [Compound 82], the solubility in “physchem” (pH 7.4) was at least 15 mg/mL; in the data set “physchem” (pH 7.4, aqueous buffer), at least 30 mg/mL. Also, the “Oral Glucose Tolerance Test Percent decrease in blood glucose AUC (%) over 60 mins” value in the data set on C57BL/6J mice is listed as 72% (3 nmol/kg). The EC50 on human GLP-1R (setting [1]) was found to be 17.4 nM.
For the compound `CC[C@H](C)[C@H](NC(=O)[C@H](CO)NC(=O)[C@H](Cc1ccc(O)cc1)NC(=O)[C@H](CC(=O)O)NC(=O)[C@H](CO)NC(=O)[C@@H](NC(=O)[C@H](Cc1ccccc1)NC(=O)[C@@H](NC(=O)CNC(=O)[C@H](CCC(=O)O)NC(=O)C(C)(C)NC(=O)[C@H](Cc1ccc(O)cc1)NC)[C@@H](C)O)[C@@H](C)CC)C(=O)N[C@@H](C)C(=O)N[C@@H](CCCCNC(=O)CNC(=O)CNC(=O)CNC(=O)CNC(=O)CNC(=O)CCCCCCCCCCCCCCCCC(=O)O)C(=O)N[C@@H](CC(=O)O)C(=O)N[C@@H](CCCNC(=N)N)C(=O)NC(C)(C)C(=O)N[C@@H](C)C(=O)N[C@@H](CCC(N)=O)C(=O)NC(C)(C)C(=O)N[C@@H](CC(=O)O)C(=O)N[C@@H](Cc1ccccc1)C(=O)N[C@H](C(=O)N[C@@H](CC(N)=O)C(=O)N[C@@H](Cc1c[nH]c2ccccc12)C(=O)N[C@@H](CC(C)C)C(=O)N[C@@H](CC(C)C)C(=O)N[C@@H](C)C(=O)N[C@@H](CCC(N)=O)C(=O)N[C@@H](CO)C(=O)N1CCC[C@H]1C(=O)N[C@@H](CO)C(=O)N[C@@H](CO)C(=O)NCC(=O)N[C@@H](C)C(=O)N1CCC[C@H]1C(=O)N1CCC[C@H]1C(=O)N1CCC[C@H]1C(=O)N[C@@H](CO)C(N)=O)C(C)C` [Compound 38], the solubility in “physchem” (pH 7.4, aqueous buffer, pH 7.4 Phosphate Buffer - Solubility, 200 mM Phosphate buffer pH 7.4) was at least 30 mg/mL; in “physchem” (pH 7.4, solubility in phosphate buffer at pH 7.4, 200 mM phosphate buffer pH 7.4), at least 15 mg/mL. Further, the “Oral Glucose Tolerance Test Percent decrease in blood glucose AUC (%) over 60 mins” value with C57BL/6J mice was 97% (3 nmol/kg). The EC50 at human GLP-1R (Human GLP1R cAMP EC50, HEK293T (nM)) was 45.7 nM.
For the compound `CC[C@H](C)[C@H](NC(=O)[C@H](Cc1ccccc1)NC(=O)[C@@H](NC(=O)CNC(=O)[C@H](CCC(=O)O)NC(=O)C(C)(C)NC(=O)[C@@H](N)Cc1ccc(O)cc1)[C@@H](C)O)C(=O)N[C@@H](CO)C(=O)N[C@@H](CC(=O)O)C(=O)N[C@@H](Cc1ccc(O)cc1)C(=O)N[C@@H](CO)C(=O)N[C@H](C(=O)NC(C)(C)C(=O)N[C@@H](CCCCNC(=O)CNC(=O)CNC(=O)CNC(=O)CNC(=O)CNC(=O)CCCCCCCCCCCCCCCCC(=O)O)C(=O)N[C@@H](CC(=O)O)C(=O)N[C@@H](CCCNC(=N)N)C(=O)NC(C)(C)C(=O)N[C@@H](C)C(=O)N[C@@H](CCC(N)=O)C(=O)NC(C)(C)C(=O)N[C@@H](CC(=O)O)C(=O)N[C@@H](Cc1ccccc1)C(=O)N[C@H](C(=O)N[C@@H](CCC(=O)O)C(=O)N[C@@H](Cc1c[nH]c2ccccc12)C(=O)N[C@@H](CC(C)C)C(=O)N[C@@H](CC(C)C)C(=O)N[C@@H](C)C(=O)N[C@@H](CCC(N)=O)C(=O)N[C@@H](CCCNC(=N)N)C(=O)NCC(=O)O)C(C)C)[C@@H](C)CC` [Compound 139], the solubility is at least 15 mg/mL in the data set “physchem” (pH 7.4) and at least 30 mg/mL in “physchem” (pH 7.4, aqueous buffer). In the data set with C57BL/6J mice, the “Oral Glucose Tolerance Test Percent decrease in blood glucose AUC (%) over 60 mins” value is recorded as 93% (3 nmol/kg). The half-maximal effective concentration (EC50) on human GLP-1R (setting [1]) was 8.91 nM.
As for `CC[C@H](C)[C@H](NC(=O)[C@H](CO)NC(=O)[C@H](Cc1ccc(O)cc1)NC(=O)[C@H](CC(=O)O)NC(=O)[C@H](CO)NC(=O)[C@@H](NC(=O)[C@H](Cc1ccccc1)NC(=O)[C@@H](NC(=O)CNC(=O)[C@H](CCC(=O)O)NC(=O)C(C)(C)NC(=O)[C@H](Cc1ccc(O)cc1)NC)[C@@H](C)O)[C@@H](C)CC)C(=O)N[C@@H](C)C(=O)N[C@@H](CCCCNC(=O)CNC(=O)CNC(=O)CNC(=O)CNC(=O)CNC(=O)CCCCCCCCCCCCCCCCC(=O)O)C(=O)N[C@@H](CC(=O)O)C(=O)N[C@@H](CCCNC(=N)N)C(=O)NC(C)(C)C(=O)N[C@@H](C)C(=O)N[C@@H](CCC(N)=O)C(=O)NC(C)(C)C(=O)N[C@@H](CC(=O)O)C(=O)N[C@@H](Cc1ccccc1)C(=O)N[C@H](C(=O)N[C@@H](CC(N)=O)C(=O)N[C@@H](Cc1c[nH]c2ccccc12)C(=O)N[C@@H](CC(C)C)C(=O)N[C@@H](CC(C)C)C(=O)N[C@@H](C)C(=O)N[C@@H](CCC(N)=O)C(=O)N[C@@H](CO)C(=O)N1CCC[C@H]1C(=O)N[C@@H](CO)C(=O)N[C@@H](CO)C(=O)NCC(=O)O)C(C)C` [Compound 71], the “Oral Glucose Tolerance Test Percent decrease in blood glucose AUC (%) over 60 mins” value in the data set with C57BL/6J mice was 68% (3 nmol/kg). In addition, the EC50 at human GLP-1R (setting [1]) came to 34.7 nM.
Turning to `CC[C@H](C)[C@H](NC(=O)[C@H](Cc1ccccc1)NC(=O)[C@@H](NC(=O)CNC(=O)[C@H](CCC(=O)O)NC(=O)C(C)(C)NC(=O)[C@@H](N)Cc1ccc(O)cc1)[C@@H](C)O)C(=O)N[C@@H](CO)C(=O)N[C@@H](CC(=O)O)C(=O)N[C@@H](Cc1ccc(O)cc1)C(=O)N[C@@H](CO)C(=O)N[C@H](C(=O)NC(C)(C)C(=O)N[C@@H](CCCCNC(=O)CNC(=O)CNC(=O)CNC(=O)CNC(=O)CNC(=O)CCCCCCCCCCCCCCCCC(=O)O)C(=O)N[C@@H](CC(=O)O)C(=O)N[C@@H](CCCNC(=N)N)C(=O)N[C@@H](C)C(=O)N[C@@H](C)C(=O)N[C@@H](CCC(N)=O)C(=O)N[C@@H](C)C(=O)N[C@@H](CC(=O)O)C(=O)N[C@@H](Cc1ccccc1)C(=O)N[C@H](C(=O)N[C@@H](CCC(=O)O)C(=O)N[C@@H](Cc1c[nH]c2ccccc12)C(=O)N[C@@H](CC(C)C)C(=O)N[C@@H](CC(C)C)C(=O)N[C@@H](C)C(=O)N[C@@H](CCC(N)=O)C(=O)N[C@@H](CCCNC(=N)N)C(=O)NCC(=O)O)C(C)C)[C@@H](C)CC` [Compound 148], the solubility is at least 15 mg/mL in the data set “physchem” (pH 7.4) and at least 30 mg/mL in “physchem” (pH 7.4, aqueous buffer). Moreover, in the data set on C57BL/6J mice, the “Oral Glucose Tolerance Test Percent decrease in blood glucose AUC (%) over 60 mins” value was 51% (3 nmol/kg).
